Among the data in patent publication US7153884B2, “C-2′ methylated derivatives of paclitaxel for use as antitumour agents” (Indena S.p.A., priority 2001, dated 2006) are IC50 values, retold here.

Format in all cases: cell-based
One assay has as its system A2780tax cell line. The assay can be described thus: Cell viability by ATP dosage (ATPlite), 72 h continuous exposure, A2780tax. The following applies: A2780tax cells, continuous exposure 72 hours, viable cells by ATP dosage. As for the experimental part:
(§1) Pharmacological experimentation was carried out on the compounds of the invention at a 0.1% concentration in dimethylsulfoxide. A2780wt, A2780cis, A2780adr and A2780tax cell lines were used. Cells were plated on 96 well flat bottom plates (Viewplates, Packard). After 24-hours, the culture medium was replaced and, after washing, media containing the tested compounds were added. A dose-response logarithmic curve was established in quadruplicate for each plate, starting from […]. Each assay was effected in duplicate three times. After 72 hour-culture in the presence of the tested compounds, the cells were collected and the number of viable cells was evaluated by ATP dosage, using the ATPlite kit (Packard, Meridien, Mo., USA) and the Topcount (Packard) automated luminometer. For each drug/cell line, the dose-response curve was plotted and the IC50 values were calculated from the concentration-effect curve obtained in three tests with the sigmoid-Emax model using non-linear regression, weighted by the reciprocal of the square of the predicted effect.

The next assay deals with A2780wt cell line. The assay can be described thus: Cell viability by ATP dosage (ATPlite), 72 h continuous exposure, A2780wt. The following applies: A2780wt cells, continuous exposure 72 hours, viable cells by ATP dosage. How it is done:
as §1
For orientation: ATP-based viability assays read luminescence as a measure of living cells.

Another assay deals with A2780cis cell line. The assay can be described thus: Cell viability by ATP dosage (ATPlite), 72 h continuous exposure, A2780cis. The following applies: A2780cis cells, continuous exposure 72 hours, viable cells by ATP dosage. As for the experimental part: as §1
The test system of another assay is A2780adr cell line. The assay can be described thus: Cell viability by ATP dosage (ATPlite), 72 h continuous exposure, A2780adr. The conditions noted are these: A2780adr cells, continuous exposure 72 hours, viable cells by ATP dosage. As for the experimental part:
as §1

With `CC(=O)O[C@H]1C(=O)[C@@]2(C)[C@H]([C@H](OC(=O)c3ccccc3)[C@]34OC(=O)O[C@H]3[C@H](OC(=O)[C@](C)(O)[C@@H](NC(=O)OC(C)(C)C)c3ccccc3)C(C)=C1C4(C)C)[C@]1(OC(C)=O)CO[C@@H]1C[C@@H]2O` [Es. 2, (2′R,3′S)-13-(N-Boc-2-methyl-3-phenylisoserinoyl)-14β-hydroxybaccatin III 1,14-carbonate], the half-inhibitory concentration (IC50) in the assay with A2780tax cell line was 299 ± 77 nM; in the assay on A2780wt cell line, 2.53 ± 1.47 nM; with A2780cis cell line, 1.7 ± 0.4 nM; in the assay on A2780adr cell line, 52.9 ± 16.2 nM.
For `CC(=O)O[C@H]1C(=O)[C@@]2(C)[C@H]([C@H](OC(=O)c3ccccc3)[C@]3(O)C[C@H](OC(=O)[C@](C)(O)[C@@H](NC(=O)OC(C)(C)C)c4ccco4)C(C)=C1C3(C)C)[C@]1(OC(C)=O)CO[C@@H]1C[C@@H]2O` [Es. 3, (2′R,3′R)-13-[N-Boc-2-methyl-3-(2-furanyl)-isoserinoyl]-baccatin III], the IC50 in the assay on A2780tax cell line amounted to 312 ± 61 nM; in the assay on A2780wt cell line, 2.9 ± 0.1 nM; in the assay with A2780cis cell line, 3.3 ± 0.2 nM; in the assay on A2780adr cell line, 41.3 ± 7.4 nM.
For `CC(=O)O[C@H]1C(=O)[C@@]2(C)[C@H]([C@H](OC(=O)c3ccccc3)[C@]34OC(=O)O[C@H]3[C@H](OC(=O)[C@](C)(O)[C@@H](NC(=O)OC(C)(C)C)c3ccco3)C(C)=C1C4(C)C)[C@]1(OC(C)=O)CO[C@@H]1C[C@@H]2O` [Es. 4, (2′R,3′R)-13-[N-Boc-2-methyl-3-(2-furanyl)isoserinoyl]-14β-hydroxybaccatin III 1,14-carbonate] the same measures were 30.9 ± 3.7 nM, 5.9 ± 0.7 nM, 2.5 ± 0.3 nM and 27.1 ± 10.1 nM.
For `CC(=O)OC1C(=O)C2(C)C(O)CC3OCC3(OC(C)=O)C2C(OC(=O)c2ccccc2)C2(O)CC(OC(=O)C(C)(O)C(NC(=O)c3ccccc3)c3ccco3)C(C)=C1C2(C)C` (stereo not drawn) [Es. 1, (2′R,3′R)-3′-dephenyl-3′-(2-furyl)-2′-methyl-paclitaxel], in that order: 420 ± 93 nM, 3.1 ± 0.2 nM, 2.9 ± 0.1 nM and 61.4 ± 3.9 nM.
In the case of “(2′R,3′R)-13-[N-Boc-2-methyl-3-(2-thienyl)isoserinoyl]-14β-hydroxybaccatin III 1,14-carbonate [Es. 6]”, the 50% inhibitory concentration (IC50) amounted to 160 ± 32 nM with A2780tax cell line, 3.7 ± 0.4 nM with A2780wt cell line, 2.9 ± 0.2 nM in the assay with A2780cis cell line and 93.2 ± 20.4 nM in the assay with A2780adr cell line.
For `CC(=O)O[C@H]1C(=O)[C@@]2(C)[C@H]([C@H](OC(=O)c3ccccc3)[C@]34OC(=O)O[C@H]3[C@H](OC(=O)[C@](C)(O)[C@@H](NC(=O)OC(C)(C)C)C(F)(F)F)C(C)=C1C4(C)C)[C@]1(OC(C)=O)CO[C@@H]1C[C@@H]2O` [Es. 5, (2′R,3′R)-13-[N-Boc-2-methyl-3-trifluoromethylisoserinoyl]-14β-hydroxybaccatin III 1,14-carbonate] the same measures were 285 ± 60 nM, 4.64 ± 2.58 nM, 2.8 ± 0.6 nM and 79.3 ± 19.9 nM.

The IC50 is the concentration that inhibits the measured activity by half.
